Data taken from article PMC6302136, “Quantitative Chemotherapeutic Profiling of Gynecologic Cancer Cell Lines Using Approved Drugs and Bioactive Compounds^” (Translational Oncology, 2018).
Like-named read-outs stand apart in the source and are kept apart here. Blank lines part the entries; values can stand above or below the compound they belong to.

What was measured:
[1] = tested on: ovarian cancer cell lines; assay: qHTS ATPlite cell viability, ovarian cancer cell lines; type: cell-based, human; conditions: Ovarian cell line killer; for IC50: mean of cell lines fulfilling criteria, 48 h, read-out: Average IC50; for Average SI: vs HEK 293T, >100 = inactive in HEK293T
[2] = tested on: HeLa cells; assay: qHTS ATPlite cell viability, HeLa cells; type: cell-based, human; conditions: for Avg SI: HeLa selective compounds, vs HEK 293T; for IC50: HeLa, confirmation screen, 48 h
[3] = tested on: PA-1 cells; assay: ATP content (ATPlite) cell viability assay in PA-1 cells; type: cell-based, human; conditions: for IC50: Homo sapiens, PA-1; for Avg SI: PA-1 selective compounds, vs HEK 293T, >100 = inactive in HEK293T
[4] = tested on: CAOV-3 cells; assay: ATP content (ATPlite) cell viability assay in CAOV-3 cells; type: cell-based, human; conditions: Homo sapiens, Caov-3, assay optimization
Method: (§1) The ATPlite luminescence assay system assay kit was used to determine cell viability. The reagent was reconstituted and prepared as described by the manufacturer. To measure the cell death caused by the compounds, cells were cultured in 4 μl of media for 16 hours at 37°C with 5% CO2 in assay plates, followed by the addition of DMSO or 16 SOC chemotherapeutic compounds dissolved in DMSO. SOC compounds were dosed at 11 concentrations (1:3 dilution) in quadruplicate from 57.5 μM to 0.977 nM using the automated Wako 1536 Pin Tool workstation and incubated at 37°C with 5% CO2 for 24, 48, or 72 hours. Four microliters of ATPlite, the ATP monitoring reagent, was then added to each well of the assay plates using the Multidrop Combi reagent dispenser followed by incubation for 15 minutes at room temperature. The resulting luminescence was measured using the ViewLux plate reader. Data were normalized for each drug using the largest luminescence value as 100% full cell viability (0% cell killing) and to the smallest luminescence value 0% viability (100% cell killing).

[5] = tested on: 11 gynecologic cancer cell lines; assay: qHTS ATPlite cell viability, gynecologic cancer cell lines (ovarian, cervical, placental); type: cell-based, human; conditions: for Cell Lines Active: number of the 11 cancer cell lines in which the compound is active (<1 μM potency, >70% efficacy); for Average SI: selectivity index vs HEK 293T
Method: as §1
(§2) A qHTS [79], in which each compound was assayed in five concentrations (0.092, 0.46, 2.3, 11.5, and 57.5 μM), was performed for the primary compound screen using the NPC [80] and NPACT drug libraries at NCATS. The OBGYN cancer and HEK 293T control cells were seeded into 1536-well assay plates at 1000 cells per 4 μl/well and incubated at 37°C in 5% CO2 for 48 hours. The ATPlite assay to determine the IC50 values for each compound was conducted as described above. Plates were processed on the fully integrated Kalypsys robotic system.

[6] = tested on: placental cancer cell lines (JAR, JEG-3); assay: qHTS ATPlite cell viability, placental cancer cell lines; type: cell-based, human; conditions: for Average SI: vs HEK 293T, >100 = inactive in HEK293T
Method: as §1
The ATPlite assay to determine the IC50 values for each compound was conducted as described above. Plates were processed on the fully integrated Kalypsys robotic system.

[7] = tested on: HEK 293T cells; assay: cells; conditions: for IC50: read-out: IC50 (HEK 293T toxicity)
Method: as §1, §2

[8] = tested on: HEK 293T cells; design: method as in PMID 31498718; conditions: CellTiterGlo, cited from earlier work; for IC50: independent screen
[9] = confirmation screen, 48 h, read-out: Avg IC50
[10] = Homo sapiens, JEG-3, Placental cancer cell line killer, mean of cell lines fulfilling criteria, 48 h, read-out: Average IC50
[11] = Homo sapiens, average IC90 over the cell lines in which the compound is active, read-out: IC90
[12] = Placental cancer cell line killer
[13] = Homo sapiens, toxic compounds, average over all cancer cell lines, 48 h, mean ± S.D., read-out: Average IC50
[14] = toxic compounds, average over all cancer cell lines, mean ± S.D.
[15] = HEK 293T, this screen (ATPlite), 48 h
[16] = toxic compounds, average over all cancer cell lines, 48 h, mean ± S.D., read-out: Average IC50

Compound: CNc1nccc(-c2cccnc2Oc2cc(C(=O)Nc3cccc(C(F)(F)F)c3)ccc2C)n1 [AMG-Tie2-1]
IC50 [1]: 15900 ± 9710 nM | Average SI [1]: >100

Compound: Cc1cc(Nc2nc(N[C@@H](C)c3ccc(F)cc3)c(C#N)cc2F)[nH]n1 [AZ-960]
IC50 ([1]; Homo sapiens): 12000 ± 7750 nM | Average SI [1]: >100

IC50 [2]: 638 nM
Compound: COc1cc(N2CCC(N)CC2)ccc1Nc1ncc(Cl)c(-c2c[nH]c3ccccc23)n1 [AZD3463]
Avg SI [2]: 30.3

Compound: COc1cccc2c1C(=O)c1c(O)c3c(c(O)c1C2=O)C[C@@](O)(C(=O)CO)C[C@@H]3O[C@H]1C[C@H](N)[C@H](O)[C@H](C)O1 [Adriamycin]
IC50 ([3]; 24 hours incubation, assay optimization, read-out: IC50 (PA-1)): 109 nM | IC50 ([3]; 48 hours incubation, assay optimization, read-out: IC50 (PA-1)): 11.8 nM | IC50 ([3]; 72 hours incubation, assay optimization, read-out: IC50 (PA-1)): 3.59 nM | IC50 [3, 9]: 576 nM | Avg SI [3]: 7.02 | IC50 ([4]; 24 hours incubation): 15900 nM | IC50 ([4]; 48 hours incubation): 98.2 nM | IC50 ([4]; 72 hours incubation): 73.7 nM

Compound: CC[C@@H]1C(=O)N(C)c2cnc(Nc3ccc(C(=O)NC4CCN(C)CC4)cc3OC)nc2N1C1CCCC1 [BI-2536]
IC90 ([5]; Homo sapiens): 39.7 nM | Cell Lines Active [5]: 4

Compound: COc1ccc2cc3[n+](cc2c1OC)CCc1cc2c(cc1-3)OCO2 [Berberine]
IC50 [6, 10]: 4.41 ± 0.662 µM

IC90 [5, 11]: 391 nM
Compound: CC(C)C[C@H](NC(=O)[C@@H](NC(=O)c1cccc(-c2ccccc2)n1)[C@@H](C)O)B(O)O [CEP-18770 (Delanzomib)]
Cell Lines Active [5]: 6

IC90 [5, 11]: 283 nM | IC50 ([5]; Homo sapiens, average over the cell lines in which the compound was active, read-out: average IC50): 0.173 µM
Compound: CN(NC(=O)CC(=O)NN(C)C(=S)c1ccccc1)C(=S)c1ccccc1 [Elesclomol]
Cell Lines Active [5]: six | Cell Lines Active ([5]; listed as Elesclomol (STA-4783)): 6

Compound: COc1cc(Nc2ncc(F)c(Nc3ccc4c(n3)N(COP(=O)(O)O)C(=O)C(C)(C)O4)n2)cc(OC)c1OC [Fostamitinib]
IC50 ([1]; Homo sapiens): 6240 ± 4060 nM | Average SI [1]: >100 | Average SI ([1]; listed as fostamatinib): > 100

Compound: C[C@@H](Oc1cc(-n2cnc3ccc(CN4CCN(C)CC4)cc32)sc1C(N)=O)c1ccccc1C(F)(F)F [GSK461364]
IC50 [6, 10]: 3.52 ± 0.133 µM | Average SI [6, 12]: 8.81 ± 0.333

Compound: CN(C)C1CCN(C(=O)c2ccc(NC(=O)Nc3ccc(-c4nc(N5CCOCC5)nc(N5CCOCC5)n4)cc3)cc2)CC1 [Gedatolisib]
IC90 ([5]; Homo sapiens): 6800 nM | Cell Lines Active [5]: 4

IC90 [5, 11]: 275 ± 28 nM
Compound: CC[C@@]1(O)C(=O)OCc2c1cc1n(c2=O)Cc2c-1nc1ccccc1c2/C=N/OC(C)(C)C [Gimatecan]
IC50 [3, 9]: 33.7 nM | Avg SI [3]: 12.5 | Cell Lines Active [5]: 4

Compound: CCN(CC)Cc1ccc2cc(COC(=O)Nc3ccc(C(=O)NO)cc3)ccc2c1 [Givinostat]
IC50 [5, 13]: 3.5 ± 3.88 µM | Average SI [5, 14]: 1.74 ± 1.25 | Efficacy (%) (HEK 293T toxicity) [7, 15]: 65.6% | IC50 ([7]; Homo sapiens, HEK-293T, 48 h): 2910 nM | toxicity to HEK 293T cells ([7]; human, 48 h): equally toxic to HEK 293T cells | Efficacy (%) (independent screen, HEK 293T) [8]: 112% | Independent Screen (confirmation of HEK 293T toxicity) [8]: Confirmed toxic | IC50 [8]: 1110 nM

Compound: Cc1csc(NC(=O)CSc2nc3c(c(C(F)(F)F)c2C#N)CCC3)n1 [Irestatin 9389]
IC50 [5, 16]: 3.52 ± 3.12 µM | Average SI [5, 14]: 0.51 ± 0.20 | Efficacy (%) (HEK 293T toxicity) [7, 15]: 102% | IC50 [7, 15]: 1340 nM

IC50 ([2]; Homo sapiens): 240 nM
Compound: C[C@@H](Oc1ccc2[nH]nc(/C=C/c3cnn(CCO)c3)c2c1)c1c(Cl)cncc1Cl [LY2874455]
Avg SI [2]: 38.8

Compound: COc1c(C)c2c(c(O)c1C/C=C(\C)CCC(=O)OCCN1CCOCC1)C(=O)OC2 [Mycophenolate mofetil]
IC50 [3, 9]: 631 nM | Avg SI [3]: >100 | Avg SI ([3]; listed as mycophenolate mofetil): > 100

Compound: COc1ccc(-c2ccc3ncc4c(c3c2)n(-c2ccc(N3CCNCC3)c(C(F)(F)F)c2)c(=O)n4C)cn1 [NVP-BGT226]
IC50 [5, 13]: 5.34 ± 6.56 µM | Average SI [5, 14]: 0.20 ± 0.26 | Efficacy (%) (HEK 293T toxicity) [7, 15]: 106% | IC50 ([7]; Homo sapiens, HEK-293T, 48 h): 258 nM | Efficacy (%) (independent screen, HEK 293T) [8]: 115% | Independent Screen (confirmation of HEK 293T toxicity) [8]: Confirmed toxic | IC50 [8]: 14.5 nM

IC50 [2]: 835 nM
Compound: COc1cc(N2CCC(N3CCN(C)CC3)CC2)ccc1Nc1ncc(Cl)c(Nc2ccccc2S(=O)(=O)C(C)C)n1 [NVP-TAE684]
IC50 [5, 16]: 15.7 ± 10 µM | Average SI [5, 14]: 4.87 ± 7.61 | Efficacy (%) (HEK 293T toxicity) [7, 15]: 91.8% | IC50 [7, 15]: 23400 nM | Avg SI [2]: 28.0 | Efficacy (%) (independent screen, HEK 293T) [8]: 126% | Independent Screen (confirmation of HEK 293T toxicity) [8]: Confirmed toxic | IC50 [8]: 3650 nM

Compound: N=C(N)c1ccc(OCCCCCOc2ccc(C(=N)N)cc2)cc1 [Nebupent]
IC50 [6, 10]: 4.9 ± 1.02 µM | Average SI [6, 12]: >100

Compound: O=C(Nc1cccnc1)N1CCC(Cc2cccc(Oc3ccc(C(F)(F)F)cn3)c2)CC1 [PF-3845]
IC50 [6, 10]: 9.31 ± 1.15 µM | Average SI [6, 12]: >100

Compound: CC(C)CC(=O)Nc1[nH]nc2c1CN(C(=O)C1CCN(C)CC1)C2(C)C [PHA-793887]
IC50 [3, 9]: 194 nM | Avg SI [3]: 12.3

Compound: COc1cccc2c1C(=O)c1c(O)c3c(c(O)c1C2=O)C[C@@](O)(C(=O)CO)C[C@@H]3O[C@H]1C[C@H](N)[C@H](O[C@@H]2CCCCO2)[C@H](C)O1 [Pirarubicin]
IC50 [3, 9]: 839 nM | Avg SI [3]: 14.6

Compound: Cc1ccc(C(=O)Nc2ccc(CN3CCN(C)CC3)c(C(F)(F)F)c2)cc1C#Cc1cnc2cccnn12 [Ponantinib]
IC50 ([5]; Homo sapiens, 48 h, read-out: Average IC50 (μM)): 15.9 ± 9.07 µM | Average SI [5, 14]: 3.56 ± 4.85 | Efficacy (%) (HEK 293T toxicity) [7, 15]: 92% | IC50 ([7]; Homo sapiens, HEK-293T, 48 h): 19900 nM | Efficacy (%) (independent screen, HEK 293T) [8]: 92.6% | Independent Screen (confirmation of HEK 293T toxicity) [8]: Confirmed toxic | IC50 [8]: 811 nM

Compound: C=C(C)[C@H]1Cc2c(ccc3c2O[C@@H]2COc4cc(OC)c(OC)cc4[C@@H]2C3=O)O1 [Rotenone]
IC50 ([6]; Homo sapiens, JEG-3, 48 h, read-out: Average IC50 (μM)): 0.0418 ± 0.0134 µM | Average SI [6, 12]: 19.5 ± 6.26

Compound: CCc1c2c(nc3ccc(O)cc13)-c1cc3c(c(=O)n1C2)COC(=O)[C@]3(O)CC [SN-38]
IC90 ([5]; average IC90 over the cell lines in which the compound is active, read-out: IC90): 592 nM | Cell Lines Active [5]: 4

Compound: CNC(=O)c1ccccc1Nc1nc(Nc2ccc(N3CCOCC3)cc2OC)ncc1Cl [TAE226]
IC50 [1]: 5320 ± 1420 nM | Average SI [1]: 8.76 ± 2.40

IC50 ([2]; Homo sapiens): 699 nM
Compound: CCS(=O)(=O)c1cccc(-c2cc(C(=O)NC3CCN(C)CC3)c(C)c3[nH]c4ncc(C)cc4c23)c1 [TAK 901]
Avg SI [2]: 12.6

IC90 [5, 11]: 90 nM
Compound: CC[C@@H]1C(=O)N(C)c2cnc(Nc3ccc(C(=O)N[C@H]4CC[C@H](N5CCN(CC6CC6)CC5)CC4)cc3OC)nc2N1C(C)C [Volasertib]
Cell Lines Active [5]: 4 | IC50 [6, 10]: 0.0709 ± 0.00735 µM | Average SI [6, 12]: 131 ± 13.5

Compound: O=C(CCCCCCC(=O)Nc1ccccc1)NO [Vorinostat]
Efficacy (%) (HEK 293T toxicity) [7, 15]: 64.7% | toxicity to HEK 293T cells ([7]; compared with suppression of the 11 gynecologic cancer cell lines): equally toxic to HEK 293T cells | Efficacy (%) (independent screen, HEK 293T) [8]: 80.2% | Independent Screen (confirmation of HEK 293T toxicity) [8]: Confirmed toxic

Compound: C=CC(=O)Nc1cccc(Oc2nc(Nc3ccc(N4CCN(C)CC4)cc3)ncc2Cl)c1 [WZ3146]
IC50 [1]: 12300 ± 8520 nM | Average SI [1]: >100

Compound: i-Bet-151
IC50 ([6]; Placental cancer cell line killer, mean of cell lines fulfilling criteria, 48 h, read-out: Average IC50): 19.3 ± 9.13 µM | Average SI [6, 12]: >100
